# Test results from patent US20100249175A1, “Dicationic compounds which selectively recognize G-quadruplex DNA” (priority 2005, published 2010).
# Key:
# [1] = tested on: telomeric G-quadruplex DNA sequence d[AG3(T2AG3)3] (SEQ ID NO: 1); test: CD titration of compounds into human telomeric G-quadruplex DNA (induced CD); assay type: binding
# Excerpt: (§1) The oligonucleotides d[AG3(T2AG3)3] (SEQ ID NO: 1), d[AG3TG4AG3TG4A] (SEQ ID NO: 2), d[G4(T4G4)3] (SEQ ID NO: 3), d[(T2G4)4] (SEQ ID NO: 4), d[(GC)7] (SEQ ID NO: 5), d[[…]] (SEQ ID NO: 6), d[G2T2G2TGTG2T2G2] (SEQ ID NO: 7), d[[…]] (SEQ ID NO: 8), d[[…]] (SEQ ID NO: 9), d[[…]] (SEQ ID NO: 10), d[[…]] (SEQ ID NO: 11), d[TTAGGGT] (SEQ ID NO: 12), and d[TGGGGT] (SEQ ID NO: 13) were purchased with HPLC purification from Midland Certified Reagent Company (The Midland Certified Reagent Company, Inc., Midland, Tex., USA). The concentration of each DNA sample was determined spectrophotometrically at 260 nm using the nearest neighbor extinction coefficient.
# (§2) Stock solutions of individual dicationic polyaryl compounds were prepared in double distilled water and diluted to working concentrations immediately before use with buffer. All measurements were performed at 20° C. in a 10 mM HEPES buffer (pH 7.4) containing 3 mM EDTA and 50 mM KCl, NaCl, or LiCl. Absorbance spectra were obtained on a Varian Cary 300 BIO UV-visible spectrophotometer (Varian, Inc., Palo Alto, Calif., United States of America) in a quartz cell with a 1 cm pathlength. CD spectra were recorded using a Jasco J-810 spectrapolarimeter (Jasco, Inc., Easton, Md., United States of America) in a 1-cm cell using an instrument scanning speed of 50 nm/min with a response time of 1 s. The spectra were averaged over four scans. A buffer baseline scan was collected in the same cuvette and subtracted from the average scan for each sample. Appropriate amounts of dicationic compound stock solution or DNA were added sequentially to increase the molar ratio.
# When an achiral ligand binds tightly to a chiral host, such as DNA, a CD signal is induced in the wavelength region corresponding to the absorbance of the ligand. […] An additional negative band centered at 395 nm overlaps with the higher energy exciton band. […] Restriction of the rotational and translational freedom of the two molecules of the dimer relative to each other will cause an increase in the rotational strength of the induced CD band, resulting in a large ellipticity. See Allenmark, S., Chirality, 15, 409-422 (2003).
# Some compounds appeared to bind to the telomeric G-quadruplex DNA sequence d[AG3(T2AG3)3] […] Relative strength of the induced CD is indicated by the number of (+) marks.
# [2] = tested on: d[TGGGGT] (SEQ ID NO: 13); test: CD titration with d[TGGGGT]; assay type: binding; conditions: 50 mM KCl, 10 mM K2HPO4, 0.1 mM EDTA, pH 7.0
# Excerpt: as §1
# as §2, with “All measurements were performed at 20° C. in a 10 mM HEPES buffer (pH 7.4) containing 3 mM EDTA and 50 mM KCl, NaCl, or LiCl.” left out, “Appropriate amounts of dicationic compound stock solution or DNA were added sequentially to increase the molar ratio.” left out
smiles,measurement,setting,value
"N=C(N)c1ccc(-c2ccc(-c3ccc(C(=N)N)o3)o2)cc1 [Compound 8, 5′-(4-Amidinophenyl)-2,2′-bifuran-5-carboxamidine]",exciton splitting in CD spectra (in words),[1],induced exciton splitting
same,Induced CD (exciton),[1]; G-Quadruplex Affinity,+++++
same,induced CD / exciton splitting (in words),[2],does not show any induced CD or exciton splitting
